Assay results taken from ChEMBL document CHEMBL4371048, “Ganocapenoids A-D: Four new aromatic meroterpenoids from Ganoderma capense” (Bioorg Med Chem Lett, 2019).
The source made the active and inactive calls. No cut-off for these calls is given here.

Key:
[1] = tested on: PC-12; assay: Neurite-outgrowth promoting activity in NGF-differentiated rat PC12 cells assessed as cell differentiation at 10 uM after 72 hrs by phase contrast microscopic method (reference value: 4.72 +/- 1.18%); type: functional, cell-based
[2] = target: Acetylcholinesterase (Homo sapiens, UniProt P22303); assay: Inhibition of AchE (unknown origin) using acetylthiocholine iodide as substrate preincubated for 20 mins followed by substrate addition and measured every 20 secs for 20 times by Ellman's assay
[3] = tested on: HepG2; assay: Reduction in lipid accumulation in human HepG2 cells after 24 hrs by Oil-red O staining based microscopic analysis; type: functional, cell-based
[4] = tested on: HepG2; assay: Increase in PPARgamma mRNA level in human HepG2 cells at 20 to 40 uM after 24 hrs by qPCR analysis; type: functional, cell-based
[5] = tested on: HepG2; assay: Decrease in HMGCR mRNA level in human HepG2 cells at 20 to 40 uM after 24 hrs by qPCR analysis; type: functional, cell-based
[6] = tested on: HepG2; assay: Decrease in SREBP2 mRNA level in human HepG2 cells at 20 to 40 uM after 24 hrs by qPCR analysis; type: functional, cell-based
[7] = tested on: HepG2; assay: Increase in PPARgamma expression in human HepG2 cells at 20 to 40 uM after 24 hrs by Western blot analysis; type: functional, cell-based
[8] = tested on: HepG2; assay: Increase in ABCG1 mRNA level in human HepG2 cells at 20 to 40 uM after 24 hrs by qPCR analysis; type: functional, cell-based
[9] = tested on: HepG2; assay: Increase in LXRalpha mRNA level in human HepG2 cells at 20 to 40 uM after 24 hrs by qPCR analysis; type: functional, cell-based
[10] = tested on: HepG2; assay: Increase in LDLR expression in human HepG2 cells at 20 to 40 uM after 24 hrs by Western blot analysis; type: functional, cell-based
[11] = tested on: HepG2; assay: Decrease in HMGCR expression in human HepG2 cells at 20 to 40 uM after 24 hrs by Western blot analysis; type: functional, cell-based
[12] = tested on: HepG2; assay: Cytotoxicity against human HepG2 cells assessed as effect on cell viability at 10 to 160 uM after 48 hrs by MTT assay; type: cell-based; conditions: hepg2, 48 h
[13] = tested on: HepG2; assay: Increase in ABCG1 expression in human HepG2 cells at 20 to 40 uM after 24 hrs by Western blot analysis; type: functional, cell-based

Chain of Acetylcholinesterase (P22303 whole entry): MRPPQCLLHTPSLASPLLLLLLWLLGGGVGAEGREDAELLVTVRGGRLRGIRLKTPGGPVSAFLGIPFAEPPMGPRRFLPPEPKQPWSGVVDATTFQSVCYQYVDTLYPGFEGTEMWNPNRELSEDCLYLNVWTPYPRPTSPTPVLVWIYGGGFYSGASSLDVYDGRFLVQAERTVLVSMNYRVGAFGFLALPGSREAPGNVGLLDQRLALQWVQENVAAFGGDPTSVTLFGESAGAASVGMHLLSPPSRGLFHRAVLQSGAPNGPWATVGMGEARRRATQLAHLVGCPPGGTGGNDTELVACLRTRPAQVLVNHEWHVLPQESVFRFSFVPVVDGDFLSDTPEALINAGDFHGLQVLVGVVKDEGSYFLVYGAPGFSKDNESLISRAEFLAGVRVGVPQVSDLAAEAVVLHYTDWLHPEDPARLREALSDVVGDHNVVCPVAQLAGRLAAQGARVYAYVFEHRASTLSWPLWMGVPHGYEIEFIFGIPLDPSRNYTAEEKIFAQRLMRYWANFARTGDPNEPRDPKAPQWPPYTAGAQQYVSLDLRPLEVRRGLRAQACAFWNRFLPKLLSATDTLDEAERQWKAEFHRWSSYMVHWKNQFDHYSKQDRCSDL

| Compound | Activity [1] | IC50 [2] | other results |
| --- | --- | --- | --- |
| C/C(=C\CCC1=C[C@H](c2cc(O)ccc2O)OC1=O)CCC=C(CO)CO | 6.72% |  |  |
| C/C(=C/CC[C@H](CO)c1cc2cc(O)c(O)cc2o1)CO | 7.11% | 28.6 µM |  |
| C/C(=C/CCC1=C[C@@H](c2cc(O)ccc2O)OC1=O)CO | 12.31% |  |  |
| COC(=O)/C(=C\C(=O)c1cc(O)ccc1O)CC/C=C(\C)CCC=C(CO)CO | 5.32% |  |  |
| C/C1=C\CCC2=CC(c3cc(O)ccc3O)(OC/C(CO)=C/CC1)OC2=O (stereo not drawn) |  |  | Activity [3]: Dose-dependent effect; Activity [4]: Active; Activity [5]: Active; Activity [6]: Active; Activity [7]: Active; Activity [8]: Active; Activity [9]: Active; Activity [10]: Active; Activity [11]: Active; Activity [12]: Non-Toxic; Activity [13]: Active |
| COC(=O)/C(=C\C(=O)c1cc(O)ccc1O)CC/C=C(\C)CCC=C(C)C | 10.95% | 8.2 µM |  |
| C/C(=C/CCC1=C[C@H](c2cc(O)ccc2O)OC1=O)CO | 11.67% |  |  |
| O=C(O)CC1(CC(=O)c2cc(O)ccc2O)C=C(CO)CCC1 (stereo not drawn) | 5.97% | 26 µM |  |
| C/C(=C\CCC1=C[C@@H](c2cc(O)ccc2O)OC1=O)CCC=C(CO)CO | 6.19% |  |  |
| CC1(C)Oc2ccc(O)cc2C2=C1CCC(C(=O)O)=C2 | 4.89% |  |  |
